Test results as given in patent publication EP2496579B1 (priority 2009, dated 2011).

Legend:
[1] = target: human muscle-type nicotinic receptor (Homo sapiens, UniProt P02708+P07510+Q07001); assay: biochemical; assay type: binding; conditions: read-out: % inhibition, N muscle-type (h) (antagonist radioligand)
[2] = target: human α4β2 neuronal nicotinic receptor (Homo sapiens, UniProt P17787+P43681); assay: Neuronal nicotinic receptor (α-BGTX-insensitive) (agonist radioligand) binding assay; conditions: test compound at 1 µmole; 0.6 nM [3H]cytisine; transfected SH-SY5Y cells; inhibition of control radioligand specific binding; one single experiment; read-out: % inhibition, N neuronal alpha-BGTX-insensitive (alpha4beta 2) (agonist radioligand)
Sequence of human α4β2 neuronal nicotinic receptor (P43681 29-627 limits assumed): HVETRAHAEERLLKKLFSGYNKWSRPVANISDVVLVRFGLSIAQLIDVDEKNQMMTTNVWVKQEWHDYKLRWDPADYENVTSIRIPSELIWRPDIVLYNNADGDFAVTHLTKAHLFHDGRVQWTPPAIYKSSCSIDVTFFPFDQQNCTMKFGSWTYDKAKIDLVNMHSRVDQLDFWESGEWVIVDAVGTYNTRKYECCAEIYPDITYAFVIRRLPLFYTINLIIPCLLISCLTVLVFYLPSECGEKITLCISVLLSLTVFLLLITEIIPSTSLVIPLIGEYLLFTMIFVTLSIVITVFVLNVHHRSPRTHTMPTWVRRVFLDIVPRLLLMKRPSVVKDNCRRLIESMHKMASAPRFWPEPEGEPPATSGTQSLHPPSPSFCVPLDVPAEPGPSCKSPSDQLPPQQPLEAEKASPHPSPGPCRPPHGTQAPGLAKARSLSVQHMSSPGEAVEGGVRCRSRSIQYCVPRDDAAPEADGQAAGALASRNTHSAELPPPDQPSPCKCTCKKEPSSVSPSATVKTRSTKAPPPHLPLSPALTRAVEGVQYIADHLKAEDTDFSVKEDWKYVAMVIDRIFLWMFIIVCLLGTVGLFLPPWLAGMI
Sequence of human α4β2 neuronal nicotinic receptor (P17787 26-502): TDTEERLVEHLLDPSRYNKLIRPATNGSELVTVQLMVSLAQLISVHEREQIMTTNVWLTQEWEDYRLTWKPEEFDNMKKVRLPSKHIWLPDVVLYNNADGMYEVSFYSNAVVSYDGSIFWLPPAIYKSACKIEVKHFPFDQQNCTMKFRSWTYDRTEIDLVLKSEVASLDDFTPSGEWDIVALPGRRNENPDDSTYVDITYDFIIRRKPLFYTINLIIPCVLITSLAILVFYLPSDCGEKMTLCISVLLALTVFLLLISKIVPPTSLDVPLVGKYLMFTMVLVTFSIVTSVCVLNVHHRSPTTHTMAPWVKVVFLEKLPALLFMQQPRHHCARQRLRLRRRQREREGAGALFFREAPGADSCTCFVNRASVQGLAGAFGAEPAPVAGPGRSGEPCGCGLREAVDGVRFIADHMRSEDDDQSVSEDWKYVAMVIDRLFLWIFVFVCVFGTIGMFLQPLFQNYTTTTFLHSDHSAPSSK
From the text: (§1) Four illustrative compounds of this invention have each been tested at a concentration of 1 µmole in a series of 6 binding assays for various […], including dopaminic receptors, neuronal nicotinic receptors and muscular nicotinic receptors. Details of each binding assay procedure are given below.
Neuronal nicotinic receptor (α-BGTX-insensitive) (agonists radioligand):
The purpose is to evaluate the affinity of compounds for the human α4β2 neuronal nicotinic receptor expressed in transfected SH-SY5Y cells, determined in a radioligand binding assay according to Gopalakrishnan et al in J. Pharmacol. Exp. Ther. (1996) 276:289. The experimental protocol is as follows. Cell membrane homogenates (30 µg protein) are incubated for 120 min at 4°C with 0.6 nM [^3H]cytisine in the absence or presence of the test compound in a buffer containing 50 mM Tris-HCl (pH 7.4), 120 mM NaCl, 5 mM KCI, 2.5 mM CaCl2 and 1 mM MgCl2. Nonspecific binding is determined in the presence of 10 µM nicotine bitartrate. Following incubation, the samples are filtered rapidly under vacuum through glass fiber filters (GF/B, Packard) presoaked with 0.3% PEI and rinsed several times with ice-cold 50 mM Tris-HCl using a 96-sample cell harvester (Unifilter, Packard). The filters are dried then counted for radioactivity in a scintillation counter (Topcount, Packard) using a scintillation cocktail (Microscint 0, Packard). The results are expressed as a percent inhibition of the control radioligand specific binding. The standard reference compound is nicotine bitartrate, which is tested in each experiment at several concentrations to obtain a competition curve from which its IC50 is calculated, and from which the % inhibition at 1 µM as indicated in the following table is obtained.

[3] = target: T1, agonist site of the human dopamine D5 receptor (Homo sapiens, UniProt P21918); assay: Human dopamine D5 receptor (agonist radioligand) binding assay; conditions: test compound at 1 µmole; 7.5 nM [3H]dopamine; transfected GH4 cells; inhibition of control radioligand specific binding; one single experiment
T1 construct: expressed in transfected cells; host or cells: GH4 cells (membrane homogenates)
T1 sequence (P21918 whole entry): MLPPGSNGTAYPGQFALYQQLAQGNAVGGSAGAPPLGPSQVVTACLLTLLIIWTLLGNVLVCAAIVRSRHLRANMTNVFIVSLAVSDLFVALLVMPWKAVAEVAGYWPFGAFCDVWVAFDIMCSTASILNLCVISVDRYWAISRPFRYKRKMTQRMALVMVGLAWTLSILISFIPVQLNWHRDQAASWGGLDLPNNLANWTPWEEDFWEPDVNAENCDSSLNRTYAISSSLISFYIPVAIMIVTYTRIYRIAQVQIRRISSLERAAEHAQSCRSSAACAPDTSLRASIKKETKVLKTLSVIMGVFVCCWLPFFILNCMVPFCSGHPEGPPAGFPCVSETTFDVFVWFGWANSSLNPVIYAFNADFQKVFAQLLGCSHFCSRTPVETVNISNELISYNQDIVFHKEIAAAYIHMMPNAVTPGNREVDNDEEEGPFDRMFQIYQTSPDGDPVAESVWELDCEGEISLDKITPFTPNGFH
From the text: as §1
Human dopamine D5 receptor (agonist radioligand):
The purpose is to evaluate the affinity of compounds for the agonist site of the human dopamine D5 receptor in transfected GH4 cells determined in a radioligand binding assay according to Sunahara et al in Nature (1991) 350:614. The experimental protocol is as follows. Cell membrane homogenates (120 µg protein) are incubated for 60 minutes at 22°C with 7.5 nM [^3H]dopamine in the absence or presence of the test compound in a buffer containing 20 mM Tris-HCl (pH 7.4), 5 mM MgCl2, 0.8 mM DTT, 0.3 mM ascorbic acid and 0.1 mM pyrocatechol. Nonspecific binding is determined in the presence of 10 µM SCH 23390. Following incubation, the samples are filtered rapidly under vacuum through glass fiber filters (GF/B, Packard) 55re-soaked with 0.3% PEI and rinsed several times with ice-cold 50 mM Tris-HCl using a 96-sample cell harvester (Unifilter, Packard). The filters are dried then counted for radioactivity in a scintillation counter (Topcount, Packard) using a scintillation cocktail (Microscint 0, Packard). The results are expressed as a percent inhibition of the control radioligand specific binding. The standard reference compound is dopamine, which is tested in each experiment at several concentrations to obtain a competition curve from which its IC50 is calculated, and from which the % inhibition at 1 µM as indicated in the following table is obtained.

[4] = target: human α7 neuronal nicotinic receptor (Homo sapiens, UniProt P36544); assay: biochemical; assay type: binding; conditions: read-out: % inhibition, N neuronal alpha -BGTX-sensitive (alpha 7) (antagonist radioligand)
Sequence of human α7 neuronal nicotinic receptor (P36544 23-502): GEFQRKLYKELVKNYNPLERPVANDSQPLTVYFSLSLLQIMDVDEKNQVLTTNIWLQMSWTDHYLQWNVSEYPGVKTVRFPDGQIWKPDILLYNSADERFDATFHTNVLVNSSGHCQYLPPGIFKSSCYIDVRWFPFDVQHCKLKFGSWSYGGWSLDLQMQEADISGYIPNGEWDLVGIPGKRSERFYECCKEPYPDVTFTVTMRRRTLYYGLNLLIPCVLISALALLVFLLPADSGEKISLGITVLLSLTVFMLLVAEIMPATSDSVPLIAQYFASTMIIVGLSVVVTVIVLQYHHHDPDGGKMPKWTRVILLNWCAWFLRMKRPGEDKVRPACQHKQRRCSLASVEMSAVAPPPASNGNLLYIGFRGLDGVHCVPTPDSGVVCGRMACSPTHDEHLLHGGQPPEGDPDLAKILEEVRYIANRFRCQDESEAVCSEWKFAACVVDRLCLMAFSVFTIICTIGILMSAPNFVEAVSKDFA

[5] = target: T2, human dopamine D1 receptor (Homo sapiens, UniProt P21728); assay: Human dopamine D1 receptor (antagonist radioligand) binding assay; conditions: test compound at 1 µmole; 0.3 nM [3H]SCH 23390; transfected CHO cells; inhibition of control radioligand specific binding; one single experiment
T2 construct: expressed in transfected cells; host or cells: CHO cells (membrane homogenates)
T2 sequence (P21728 whole entry): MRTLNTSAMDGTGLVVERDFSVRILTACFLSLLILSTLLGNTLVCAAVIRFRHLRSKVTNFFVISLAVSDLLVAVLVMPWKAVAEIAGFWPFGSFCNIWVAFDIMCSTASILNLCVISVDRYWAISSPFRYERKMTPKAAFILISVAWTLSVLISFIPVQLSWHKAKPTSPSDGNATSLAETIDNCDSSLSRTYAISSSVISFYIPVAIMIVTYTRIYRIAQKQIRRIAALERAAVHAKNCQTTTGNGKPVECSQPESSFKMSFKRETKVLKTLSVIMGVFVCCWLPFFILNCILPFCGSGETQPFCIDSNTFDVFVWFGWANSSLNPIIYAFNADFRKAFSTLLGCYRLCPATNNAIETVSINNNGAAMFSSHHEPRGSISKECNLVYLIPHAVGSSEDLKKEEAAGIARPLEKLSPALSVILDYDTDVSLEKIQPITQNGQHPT
From the text: as §1
Human dopamine D1 receptor (antagonist radioligand):
The purpose is to evaluate the affinity of compounds for the human dopamine D1 receptor in transfected CHO cells determined in a radioligand binding assay according to Zhou et al in Nature (1990) 347:76. The experimental protocol is as follows. Cell membrane homogenates (48 µg protein) are incubated for 60 minutes at 22°C with 0.3 nM [^3H]SCH 23390 in the absence or presence of the test compound in a buffer containing 50 mM Tris-HCl (pH 7.4), 5 mM KCI, 5 mM MgCl2, 1.5 mM CaCl2 and 5 mM EDTA. Non-specific binding is determined in the presence of 1 µM SCH 23390. […] The filters are dried then counted for radioactivity in a scintillation counter (Topcount, Packard) using a scintillation cocktail (Microscint 0, Packard). The results are expressed as a percent inhibition of the control radioligand specific binding. […]

[6] = target: T3, Human dopamine D5 receptor (Homo sapiens, UniProt P21918); assay: Human dopamine D5 receptor (antagonist radioligand) binding assay; conditions: test compound at 1 µmole; 0.3 nM [3H]SCH 23390; transfected GH4 cells; inhibition of control radioligand specific binding; one single experiment
T3 construct: expressed in transfected cells; host or cells: GH4 cells (membrane homogenates)
T3 sequence (P21918 whole entry): as the sequence (P21918 whole entry) above
From the text: as §1
Human dopamine D5 receptor (antagonist radioligand):
The purpose is to evaluate the affinity of compounds for the human dopamine […] in transfected GH4 cells determined in a radioligand binding assay according to Sunahara et al in Nature (1991) 350:614. The experimental protocol is as follows. Cell membrane homogenates (20 µg protein) are incubated for 60 minutes at 22°C with 0.3 nM [^3H]SCH 23390 in the absence or presence of the test compound in a buffer containing 50 mM Tris-HCl (pH 7.4), 120 mM NaCl, 5 mM KCI, 5 mM MgCl2 and 1 mM EDTA. Nonspecific binding is determined in the presence of 10 µM SCH 23390. […] The filters are dried then counted for radioactivity in a scintillation counter (Topcount, Packard) using a scintillation cocktail (Microscint 0, Packard). The results are expressed as a percent inhibition of the control radioligand specific binding. […]

[7] = relative to morphine; background statement; cited from earlier work

Sequence of human muscle-type nicotinic receptor (P02708 21-457): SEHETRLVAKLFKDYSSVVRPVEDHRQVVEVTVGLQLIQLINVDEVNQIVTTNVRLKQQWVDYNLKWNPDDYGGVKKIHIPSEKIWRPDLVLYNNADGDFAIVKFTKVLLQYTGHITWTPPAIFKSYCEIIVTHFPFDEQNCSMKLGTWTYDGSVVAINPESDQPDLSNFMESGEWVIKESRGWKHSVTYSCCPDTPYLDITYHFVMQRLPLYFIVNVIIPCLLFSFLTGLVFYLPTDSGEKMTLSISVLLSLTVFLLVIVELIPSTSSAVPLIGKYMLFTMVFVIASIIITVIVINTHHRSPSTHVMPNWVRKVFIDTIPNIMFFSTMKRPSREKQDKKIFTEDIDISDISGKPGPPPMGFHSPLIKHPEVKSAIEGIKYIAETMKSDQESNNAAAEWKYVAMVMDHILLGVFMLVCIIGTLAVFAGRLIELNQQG
Sequence of human muscle-type nicotinic receptor (P07510 23-517): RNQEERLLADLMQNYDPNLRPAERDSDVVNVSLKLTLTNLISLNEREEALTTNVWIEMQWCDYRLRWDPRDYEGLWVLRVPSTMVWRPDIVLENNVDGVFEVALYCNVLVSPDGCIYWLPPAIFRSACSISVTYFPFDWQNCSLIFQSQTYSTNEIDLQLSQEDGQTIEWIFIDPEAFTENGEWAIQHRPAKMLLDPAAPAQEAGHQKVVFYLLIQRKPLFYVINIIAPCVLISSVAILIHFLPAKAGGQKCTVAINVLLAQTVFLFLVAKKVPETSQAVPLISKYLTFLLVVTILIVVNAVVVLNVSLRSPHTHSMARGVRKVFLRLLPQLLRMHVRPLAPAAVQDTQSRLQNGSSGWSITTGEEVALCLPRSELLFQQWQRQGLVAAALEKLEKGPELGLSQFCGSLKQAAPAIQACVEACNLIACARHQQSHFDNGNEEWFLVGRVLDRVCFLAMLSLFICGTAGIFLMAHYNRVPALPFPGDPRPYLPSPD
Sequence of human muscle-type nicotinic receptor (P11230 24-501, further chain): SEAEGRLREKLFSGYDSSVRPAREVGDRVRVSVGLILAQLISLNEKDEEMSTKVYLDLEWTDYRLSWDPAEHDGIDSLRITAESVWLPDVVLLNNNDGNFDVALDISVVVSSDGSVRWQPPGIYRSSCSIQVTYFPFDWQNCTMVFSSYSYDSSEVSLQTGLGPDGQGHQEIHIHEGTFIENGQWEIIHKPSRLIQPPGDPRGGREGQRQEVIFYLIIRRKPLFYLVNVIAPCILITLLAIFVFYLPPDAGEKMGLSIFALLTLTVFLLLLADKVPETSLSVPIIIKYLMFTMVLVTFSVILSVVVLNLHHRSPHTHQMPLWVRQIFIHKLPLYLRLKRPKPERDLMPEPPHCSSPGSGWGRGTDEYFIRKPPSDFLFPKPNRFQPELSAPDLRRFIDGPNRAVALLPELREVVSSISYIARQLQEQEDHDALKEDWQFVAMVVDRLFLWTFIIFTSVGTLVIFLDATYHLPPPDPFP
Sequence of human muscle-type nicotinic receptor (Q07001 22-517): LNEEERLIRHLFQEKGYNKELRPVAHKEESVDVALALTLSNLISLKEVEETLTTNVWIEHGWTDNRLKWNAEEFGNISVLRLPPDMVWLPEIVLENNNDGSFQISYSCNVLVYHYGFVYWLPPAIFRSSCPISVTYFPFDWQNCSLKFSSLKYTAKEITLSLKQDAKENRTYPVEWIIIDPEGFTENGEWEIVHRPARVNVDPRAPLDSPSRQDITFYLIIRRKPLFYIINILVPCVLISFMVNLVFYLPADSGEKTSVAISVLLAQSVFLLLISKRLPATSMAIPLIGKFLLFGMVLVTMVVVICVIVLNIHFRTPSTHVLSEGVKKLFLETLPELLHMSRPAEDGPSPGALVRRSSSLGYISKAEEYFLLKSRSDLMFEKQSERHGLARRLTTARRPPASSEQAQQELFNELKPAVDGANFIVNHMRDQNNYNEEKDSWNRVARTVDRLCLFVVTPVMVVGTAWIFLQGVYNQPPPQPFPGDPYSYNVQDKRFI

| SMILES | inhibition at 0.0005 µM [1] | inhibition at 1 µM [2] | inhibition at 1 µM [3] | inhibition at 50 pM [4] | inhibition at 1 µM [5] | inhibition at 1 µM [6] | analgesic potency, higher than that of morphine [7] |
| --- | --- | --- | --- | --- | --- | --- | --- |
| CCN1CCC2CC1(C(=O)c1ccc(Cl)nc1)C2 [Comp.9m] | -8% | 4% | -13% | -1% | – | – | – |
| OC(c1cccnc1)C12CC(CCN1)C2 (stereo not drawn) [Comp.11] | 17% | – | – | -1% | – | – | – |
| CCN1CCC2CC1(C(O)c1cccnc1)C2 (stereo not drawn) [Comp.19a] | 33% | 24% | -2% | 3% | 9% | – | – |
| NCC12CC(CCN1Cc1ccccn1)C2 [Comp.20] | 32% | 11% | 6% | 12% | -3% | 31% | – |
| Clc1ccc(C2CC3CCC2N3)cn1 (stereo not drawn) [epibatidine] | – | – | – | – | – | – | about 200 fold |
